Source: ChEMBL document CHEMBL3217455, “Peptides: minimal drug surrogates to interrogate and interfere with protein function” (Medchemcomm, 2013)
Where a SMILES comes first, the peptide text is derived from it.

Biological target: T1, Rhombotin-2 (Homo sapiens, UniProt P25791)
T1 sequence (P25791 whole entry): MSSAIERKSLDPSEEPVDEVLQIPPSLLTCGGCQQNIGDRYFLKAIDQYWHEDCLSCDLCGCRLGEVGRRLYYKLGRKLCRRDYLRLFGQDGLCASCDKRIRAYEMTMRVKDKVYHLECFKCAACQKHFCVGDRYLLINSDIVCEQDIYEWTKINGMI
Assay: Binding affinity to GST-tagged LMO2 (unknown origin) by surface plasmon resonance analysis

Kd: 29 nM
Structure (SMILES): CC[C@H](C)[C@H](NC(=O)[C@@H](NC(=O)[C@H](Cc1cnc[nH]1)NC(=O)[C@H](CC(C)C)NC(=O)[C@H](CCCNC(=N)N)NC(=O)[C@H](CO)NC(=O)[C@H](CCC(N)=O)NC(=O)[C@@H](N)CO)[C@@H](C)O)C(=O)N[C@@H](CC(C)C)C(=O)N[C@@H](CS)C(=O)N[C@@H](Cc1cnc[nH]1)C(=O)N[C@@H](CCC(=O)O)C(=O)N[C@@H](CS)C(=O)N[C@H](C(=O)N[C@H](C(=O)N[C@@H](CO)C(=O)N[C@@H](Cc1ccccc1)C(=O)N[C@@H](CC(C)C)C(=O)N[C@@H](CO)C(=O)N[C@@H](CC(C)C)C(=O)O)[C@@H](C)O)C(C)C (H-SQSRLHTILCHECVTSFLSL-OH)
